One compound from article PMC5642598, “Histone deacetylase inhibitor thailandepsin-A activates Notch signaling and suppresses neuroendocrine cancer cell growth in vivo” (Oncotarget, 2017) can be followed below.

Structures are written as SMILES. pEC50: −log10 of the molar value.

For the experiment, the target named is T1, HDAC1 (Homo sapiens, UniProt Q13547).
T1 construct: HDAC1-NanoLuc fusion protein
In words: NanoBRET target engagement in live TT cells, competitive displacement of HDAC Tracer-01. Type of experiment: cell-based. An excerpt:
NanoBRET target engagement in live TT cells, competitive displacement of HDAC Tracer-01 on HDAC1 | TDP-A dose-dependently attenuated BRET from intracellular HDAC1-NanoLuc fusion protein (Figure 1B) in low nanomolar concentrations
(In general: Bioluminescence resonance energy transfer reports proximity on the nanometre scale.)

T1 sequence (Q13547 whole entry, the tested form may be a part): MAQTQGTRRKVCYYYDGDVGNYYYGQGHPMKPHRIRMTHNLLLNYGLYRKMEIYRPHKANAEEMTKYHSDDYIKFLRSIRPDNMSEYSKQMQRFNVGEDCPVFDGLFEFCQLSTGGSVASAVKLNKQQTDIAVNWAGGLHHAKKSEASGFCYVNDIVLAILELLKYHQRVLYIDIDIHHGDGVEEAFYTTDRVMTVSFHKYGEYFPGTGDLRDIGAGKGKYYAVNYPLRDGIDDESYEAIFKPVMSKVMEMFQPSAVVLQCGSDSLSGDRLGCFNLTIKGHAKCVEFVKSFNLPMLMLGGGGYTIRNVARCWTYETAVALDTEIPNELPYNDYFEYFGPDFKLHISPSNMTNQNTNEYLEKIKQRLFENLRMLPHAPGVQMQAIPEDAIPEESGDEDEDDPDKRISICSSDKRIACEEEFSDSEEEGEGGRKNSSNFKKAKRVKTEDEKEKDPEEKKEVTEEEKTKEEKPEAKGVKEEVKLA

Turning to `CC[C@H](C)[C@H]1NC(=O)[C@H]2CSSCC/C=C/[C@H](CC(=O)N[C@H](CCSC)C(=O)N2)OC(=O)C[C@@H]1O` [TDP-A, thailandepsin A], the pEC50 was 8.17.

For orientation: pEC50 means −log10 of the EC50, conventionally taken in molar units.
